Source: patent US20240140991A1, “ANTIBIOTIC NATURAL PRODUCT ANALOGUES” (THE QUEEN'S UNIVERSITY OF BELFAST, priority 2021, published 2024)
Values after ≈ are worked out from the molar mass of the structure shown. Positions of bridges follow the written chain, without caps; N, C: chain ends. Non-standard residues stand in square brackets, D forms with d. Residues, ends and D or L forms follow the SMILES beside them. ξ: configuration not given here. *: point of attachment. Palmitoyl = CCCCCCCCCCCCCCCC(=O)*; Hexanoyl(4ξ-Me) = CCC(C)CCC(=O)*; Myristoyl = CCCCCCCCCCCCCC(=O)*; Lauroyl = CCCCCCCCCCCC(=O)*; Decanoyl = CCCCCCCCCC(=O)*; dOrn = NCCC[C@@H](N)C(=O)O; Octanoyl = CCCCCCCC(=O)*; Orn = NCCC[C@H](N)C(=O)O; Hexanoyl = CCCCCC(=O)*; Butyryl = CCCC(=O)*; OAll = C=CCO*

Experiments:
[1] = tested on: Escherichia coli ATCC 25922; assay type: cell-based; conditions: ATCC 25922
Outline: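 Broth microdilution in MHB per CLSI; inoculum 2×10^5 CFU mL^−1 from log-phase TSB cultures at OD600 0.5. Plates incubated 16 hours at 37° C with shaking at 220 rpm. MIC is the lowest concentration preventing visible growth.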

[2] = tested on: K. pneumoniae ATCC 11228; assay type: cell-based, Klebsiella pneumoniae; conditions: ATCC 11228
Procedure: (§1) Minimum inhibitory concentration (MIC) was determined by broth microdilution according to CLSI guidelines. Blood agar plates were inoculated with glycerol stocks of Escherichia coli ATCC 25922, E. coli ATCC 25922 MCR-1, E. coli MCR-1 (clinical isolate from Utrecht Medical Center, NL), E. coli EQAS MCR-2 (clinical isolate from Wageningen University and Research, NL), Kiebsielia pneumoniae ATCC 11228, K. pneumoniae ATCC 13883, K. pneumonia 2048 (clinical isolate from Vrije Universiteit Amsterdam Medical Center, NL), K. pneumonia JS-123 (clinical isolate from Utrecht Medical Center, NL), Acinetobacter baumannii ATCC 17961, A. baumannil ATCC 17978, A. baumannii 2018-006 (clinical isolate from Rijksinstituut voor Volksgezondheid en Milieu, NL), A. baumannii MDR (clinical isolate from Vrije Universiteit Amsterdam Medical Center, NL), Pseudomonas aeruginosa ATCC 27853, P. aeruginosa PAO1, P. aeruginosa NRZ-03961 (Reference strain from Das Nationale Referenzzentrum für gramnegative Krankenhauserreger, DE), P. aeruginosa M-120 (clinical isolate from Leiden University Medical Center, NL) and Staphylococcus aureus USA300 (clinical isolate from Texas Children's Hospitalm, USA). E. coli 25922 MCR1 was grown on LB agar supplemented with kanamycin. The inoculated agar plates were then incubated for 16 hours at 37° C. Individually grown colonies were subsequently used to inoculate 3 mL aliquots of TSB that were then incubated at 37° C. with shaking at 220 rpm. In parallel, the compounds to be assessed were serially diluted with Mueller-Hinton broth (MHB) in polypropylene 96-well plates (50 μL in each well). Once the OD600 of the bacterial suspensions reached 0.5, the bacteria were diluted with MHB (final concentration 2×10^5 CFU mL^−1) and added to the microplates containing the test compounds (50 μL to each well, final volume: 100 μL). The well-plates were sealed with an adhesive membrane and after 16 hours of incubation at 37° C. with shaking at 220 rpm the wells were visually inspected for bacterial growth. MIC values were defined as the lowest concentration of the compound that prevented visible growth of bacteria.

[3] = tested on: A. baumannii ATCC 17978; assay type: cell-based, Acinetobacter baumannii; conditions: ATCC 17978
Procedure: as §1

[4] = tested on: P. aeruginosa PAO1; assay type: cell-based, Pseudomonas aeruginosa; conditions: PAO1
Procedure: as §1

[5] = tested on: E. coli; assay type: cell-based
Procedure: as §1
MIC values were determined for the lipid analogues of brevicidine.
MIC values were determined for the position 9 analogues of linear brevicidine.

Compound | Minimum inhibitory concentration (MIC) [1] | Minimum inhibitory concentration (MIC) [2] | Minimum inhibitory concentration (MIC) [3] | Minimum inhibitory concentration (MIC) [4] | E. coli MIC [5]
CC[C@H](C)[C@@H]1NC(=O)[C@@H](NC(=O)[C@H](Cc2c[nH]c3ccccc23)NC(=O)[C@@H](CCCN)NC(=O)CNC(=O)[C@H](CCCN)NC(=O)[C@@H](CCCN)NC(=O)[C@@H](Cc2c[nH]c3ccccc23)NC(=O)[C@@H](Cc2ccc(O)cc2)NC(=O)[C@H](N)CO)[C@@H](C)OC(=O)CNC(=O)CNC(=O)[C@H](CC(N)=O)NC1=O [NH2] (H-[dS][dY][dW][dOrn][Orn]G[dOrn]WTINGG; ester 9-C) | 32 µg/mL (≈ 21.8 µM) | >64 µg/mL | >64 µg/mL | 64 µg/mL (≈ 43.7 µM) | 
CCCCCCCCCCCC(=O)N[C@H](CO)C(=O)N[C@H](Cc1ccc(O)cc1)C(=O)N[C@H](Cc1c[nH]c2ccccc12)C(=O)N[C@H](CCCN)C(=O)N[C@@H](CCCN)C(=O)NCC(=O)N[C@H](CCCN)C(=O)N[C@@H](Cc1c[nH]c2ccccc12)C(=O)N[C@@H]1C(=O)N[C@@H]([C@@H](C)CC)C(=O)N[C@@H](CC(N)=O)C(=O)NCC(=O)NCC(=O)O[C@@H]1C [Compound C12] (Lauroyl-[dS][dY][dW][dOrn][Orn]G[dOrn]WTINGG; ester 9-C) | 4 µg/mL (≈ 2.43 µM) | 2 to 4 µg/mL | 2 µg/mL (≈ 1.21 µM) | 4 µg/mL (≈ 2.43 µM) | 
CCCCCCCCCCCCCC(=O)N[C@H](CO)C(=O)N[C@H](Cc1ccc(O)cc1)C(=O)N[C@H](Cc1c[nH]c2ccccc12)C(=O)N[C@H](CCCN)C(=O)N[C@@H](CCCN)C(=O)NCC(=O)N[C@H](CCCN)C(=O)N[C@@H](Cc1c[nH]c2ccccc12)C(=O)N[C@@H]1C(=O)N[C@@H]([C@@H](C)CC)C(=O)N[C@@H](CC(N)=O)C(=O)NCC(=O)NCC(=O)O[C@@H]1C [Compound C14] (Myristoyl-[dS][dY][dW][dOrn][Orn]G[dOrn]WTINGG; ester 9-C) | 8 µg/mL (≈ 4.78 µM) | 8 µg/mL (≈ 4.78 µM) | 4 µg/mL (≈ 2.39 µM) | 8 µg/mL (≈ 4.78 µM) | 
CCCCCCCCCC(=O)N[C@H](CO)C(=O)N[C@H](Cc1ccc(O)cc1)C(=O)N[C@H](Cc1c[nH]c2ccccc12)C(=O)N[C@H](CCCN)C(=O)N[C@@H](CCCN)C(=O)NCC(=O)N[C@H](CCCN)C(=O)N[C@@H](Cc1c[nH]c2ccccc12)C(=O)N[C@@H]1C(=O)N[C@@H]([C@@H](C)CC)C(=O)N[C@@H](CC(N)=O)C(=O)NCC(=O)NCC(=O)O[C@@H]1C [Compound C10] (Decanoyl-[dS][dY][dW][dOrn][Orn]G[dOrn]WTINGG; ester 9-C) | 1 to 2 µg/mL | 1 µg/mL (≈ 0.618 µM) | 1 µg/mL (≈ 0.618 µM) | 1 to 2 µg/mL | 
CCCC(=O)N[C@H](CO)C(=O)N[C@H](Cc1ccc(O)cc1)C(=O)N[C@H](Cc1c[nH]c2ccccc12)C(=O)N[C@H](CCCN)C(=O)N[C@@H](CCCN)C(=O)NCC(=O)N[C@H](CCCN)C(=O)N[C@@H](Cc1c[nH]c2ccccc12)C(=O)N[C@@H]1C(=O)N[C@@H]([C@@H](C)CC)C(=O)N[C@@H](CC(N)=O)C(=O)NCC(=O)NCC(=O)O[C@@H]1C [Compound C4] (Butyryl-[dS][dY][dW][dOrn][Orn]G[dOrn]WTINGG; ester 9-C) | 8 µg/mL (≈ 5.21 µM) | 8 µg/mL (≈ 5.21 µM) | 4 µg/mL (≈ 2.61 µM) | 8 µg/mL (≈ 5.21 µM) | 
CCC(C)CCC(=O)N[C@H](CC(N)=O)C(=O)N[C@H](Cc1ccc(O)cc1)C(=O)N[C@H](Cc1c[nH]c2ccccc12)C(=O)N[C@H](CCCN)C(=O)N[C@@H](CCCN)C(=O)NCC(=O)N[C@H](CCCN)C(=O)N[C@@H](Cc1c[nH]c2ccccc12)C(=O)N[C@@H](CCC(N)=O)C(=O)N[C@H](C(=O)NCC(N)=O)[C@@H](C)CC (some centres unmarked) [Und(9-Gln)-NH2] ({Hexanoyl(4ξ-Me)}-[dN][dY][dW][dOrn][Orn]G[dOrn]WQIG-NH2) |  |  |  |  | 0.78 µg/mL
CCC(C)CCC(=O)N[C@H](CC(N)=O)C(=O)N[C@H](Cc1ccc(O)cc1)C(=O)N[C@H](Cc1c[nH]c2ccccc12)C(=O)N[C@H](CCCN)C(=O)N[C@@H](CCCN)C(=O)NCC(=O)N[C@H](CCCN)C(=O)N[C@@H](Cc1c[nH]c2ccccc12)C(=O)N[C@@H](CC(=O)O)C(=O)N[C@H](C(=O)NCC(N)=O)[C@@H](C)CC (some centres unmarked) [Und(9-Asp)-NH2] ({Hexanoyl(4ξ-Me)}-[dN][dY][dW][dOrn][Orn]G[dOrn]WDIG-NH2) |  |  |  |  | 12.5 µg/mL
CCCCCCCC(=O)N[C@H](CC(N)=O)C(=O)N[C@H](Cc1ccc(O)cc1)C(=O)N[C@H](Cc1c[nH]c2ccccc12)C(=O)N[C@H](CCCN)C(=O)N[C@@H](CCCN)C(=O)NCC(=O)N[C@H](CCCN)C(=O)N[C@@H](Cc1c[nH]c2ccccc12)C(=O)N[C@@H]1C(=O)N[C@@H]([C@@H](C)CC)C(=O)NCC(=O)N[C@@H](CO)C(=O)O[C@@H]1C [Brev-C8] (Octanoyl-[dN][dY][dW][dOrn][Orn]G[dOrn]WTIGS; ester 9-C) |  |  |  |  | 25 µg/mL
CCCCCC(=O)N[C@H](CO)C(=O)N[C@H](Cc1ccc(O)cc1)C(=O)N[C@H](Cc1c[nH]c2ccccc12)C(=O)N[C@H](CCCN)C(=O)N[C@@H](CCCN)C(=O)NCC(=O)N[C@H](CCCN)C(=O)N[C@@H](Cc1c[nH]c2ccccc12)C(=O)N[C@@H]1C(=O)N[C@@H]([C@@H](C)CC)C(=O)N[C@@H](CC(N)=O)C(=O)NCC(=O)NCC(=O)O[C@@H]1C [Compound C6] (Hexanoyl-[dS][dY][dW][dOrn][Orn]G[dOrn]WTINGG; ester 9-C) | 1 to 2 µg/mL | 2 µg/mL (≈ 1.28 µM) | 1 µg/mL (≈ 0.64 µM) | 1 to 2 µg/mL | 
CC[C@H](C)[C@@H]1NC(=O)[C@@H](NC(=O)[C@H](Cc2c[nH]c3ccccc23)NC(=O)[C@@H](CCCN)NC(=O)CNC(=O)[C@H](CCCN)NC(=O)[C@@H](CCCN)NC(=O)[C@@H](Cc2c[nH]c3ccccc23)NC(=O)[C@@H](Cc2ccc(O)cc2)NC(=O)[C@@H](CO)NC(C)=O)[C@@H](C)OC(=O)CNC(=O)CNC(=O)[C@H](CC(N)=O)NC1=O [Compound C2] (Ac-[dS][dY][dW][dOrn][Orn]G[dOrn]WTINGG; ester 9-C) | 16 µg/mL (≈ 10.6 µM) | 16 µg/mL (≈ 10.6 µM) | 64 µg/mL (≈ 42.5 µM) | 16 µg/mL (≈ 10.6 µM) | 
CCCCCCCCCCCCCCCC(=O)N[C@H](CC(N)=O)C(=O)N[C@H](Cc1ccc(O)cc1)C(=O)N[C@H](Cc1c[nH]c2ccccc12)C(=O)N[C@H](CCCN)C(=O)N[C@@H](CCCN)C(=O)NCC(=O)N[C@H](CCCN)C(=O)N[C@@H](Cc1c[nH]c2ccccc12)C(=O)N[C@@H]1C(=O)N[C@@H]([C@@H](C)CC)C(=O)NCC(=O)N[C@@H](CO)C(=O)O[C@@H]1C [Brev-C16] (Palmitoyl-[dN][dY][dW][dOrn][Orn]G[dOrn]WTIGS; ester 9-C) |  |  |  |  | >100 µg/mL
CC[C@H](C)[C@@H]1NC(=O)[C@@H](NC(=O)[C@H](Cc2c[nH]c3ccccc23)NC(=O)[C@@H](CCCN)NC(=O)CNC(=O)[C@H](CCCN)NC(=O)[C@@H](CCCN)NC(=O)[C@@H](Cc2c[nH]c3ccccc23)NC(=O)[C@@H](Cc2ccc(O)cc2)NC(=O)[C@H](N)CC(N)=O)[C@@H](C)OC(=O)[C@H](CO)NC(=O)CNC1=O [Brev-NH2] (H-[dN][dY][dW][dOrn][Orn]G[dOrn]WTIGS; ester 9-C) |  |  |  |  | 50 µg/mL
CCC(C)CCC(=O)N[C@H](CC(N)=O)C(=O)N[C@H](Cc1ccc(O)cc1)C(=O)N[C@H](Cc1c[nH]c2ccccc12)C(=O)N[C@H](CCCN)C(=O)N[C@@H](CCCN)C(=O)NCC(=O)N[C@H](CCCN)C(=O)N[C@@H](Cc1c[nH]c2ccccc12)C(=O)N[C@@H](CC(C)C)C(=O)N[C@H](C(=O)NCC(N)=O)[C@@H](C)CC (some centres unmarked) [Und(9-Leu)-NH2] ({Hexanoyl(4ξ-Me)}-[dN][dY][dW][dOrn][Orn]G[dOrn]WLIG-NH2) |  |  |  |  | 0.78 µg/mL
C=CCOC(=O)CC[C@H](NC(=O)[C@H](Cc1c[nH]c2ccccc12)NC(=O)[C@@H](CCCN)NC(=O)CNC(=O)[C@H](CCCN)NC(=O)[C@@H](CCCN)NC(=O)[C@@H](Cc1c[nH]c2ccccc12)NC(=O)[C@@H](Cc1ccc(O)cc1)NC(=O)[C@@H](CC(N)=O)NC(=O)CCC(C)CC)C(=O)N[C@H](C(=O)NCC(N)=O)[C@@H](C)CC (some centres unmarked) [Und(9-AllGlu)-NH2] ({Hexanoyl(4ξ-Me)}-[dN][dY][dW][dOrn][Orn]G[dOrn]WE(OAll)IG-NH2) |  |  |  |  | 0.4 µg/mL
